The values below come from US9968587B2, “Heterocycle analogs of CAI-1 as agonists of quorum sensing in vibrio” (THE TRUSTEES OF PRINCETON UNIVERSITY, priority 2013, dated 2018).

Read-outs that look alike come from different tables or passages of the source. A value given as a limit tells only on which side of the number the result lay.

In data set [1] the target is V. cholerae CqsS receptor (Vibrio cholerae serotype O1, UniProt Q9KM66). In words: CqsS agonist bioassay (V. cholerae reporter strain MM920, bioluminescence). Conditions: for QS agonist potency (in words) / level of QS activation (in words): CqsS agonist bioassay; for EC50: mean of triplicate analyses.
Excerpt: The molecules were bioassayed in a system that exploits the V. cholerae quorum sensing circuit. The bioassay used a bacterial reporter strain to measure the QS response. Values for percent of activation correspond to the level of bioluminescence produced in the bacterial reporter strain at saturating concentrations of molecule compared to the maximal levels produced in the presence of a native autoinducer molecule (Ea-CAI-1). […] The EC50 values correspond to the concentrations that are required to activate quorum sensing to its half-maximal level.
DMSO was used as the negative control.
EC50 values were calculated by Prism 5 using standard settings and are described in the Tables and text with the error representing the 95% confidence interval for the calculated EC50 value.
The values for % response described in the Tables and text describe the maximal luminescence change for each of the analogs as a percent of EaCAI-1 or 18 (set at 100%). One of these molecules was included as a positive standard of activity for each of the assays.
Data set [2] concerns TcpA. The experiment in a line: Western blot analysis of TcpA production. In kind it is cell-based, Vibrio cholerae. The note with it: FIG. 3, DMSO control. From the text: (§1) In vivo, HapR is a transcription factor that functions as one of two master QS regulators in V. cholerae. Agonism of CqsS leads to increased production of HapR and HapR, in turn, drives the high-cell density gene expression program, which leads to repression of the expression of genes required for virulence and biofilm formation. […] Conversely, production the major V. cholerae virulence factor, TcpA, (toxin-co-regulated pilis protein subunit A), is repressed by both CAI-1 and compound 18.
(§2) Overnight cultures of V. cholerae CqsA-LuxQ—were diluted 1000-fold in AKI medium containing the indicated compounds. The cultures were grown under static conditions at 37° C. for 4 h and then were shaken for 18 h at 37° C. Cells were collected by centrifugation, TcpA and HapR from different samples were analyzed by Western Blot as described in references.
For orientation: A western blot detects proteins with antibodies after separation by electrophoresis.

The subject of data set [3] is HapR. The experiment in a line: Western blot analysis of HapR production. Type of data set: cell-based, Vibrio cholerae.
Excerpt: as §1, §2

In data set [4] the test system is Vibrio cholerae strain MM920. The experiment in a line: Cytotoxicity of compound 18 in V. cholerae as assessed by OD600. The note with it: FIG. 9, OD600.
The mark [5] stands for this setting: EC50, complete bioassay data, error = 95% confidence interval.
Where [6] appears, read: read-out: % Response, complete bioassay data, percent maximal bioluminescence with respect to Ea-CAI-1 (100%), error = 95% confidence interval.
Where [7] appears, read: EC50, QS agonist activity, reporter strain MM920, 4-hour incubation at 30° C.
[8] abbreviates: read-out: % Response, Percent maximal bioluminescence with respect to Ea-CAI-1, which is set at 100%.

Sequence of V. cholerae CqsS receptor (Q9KM66 whole entry, looked up): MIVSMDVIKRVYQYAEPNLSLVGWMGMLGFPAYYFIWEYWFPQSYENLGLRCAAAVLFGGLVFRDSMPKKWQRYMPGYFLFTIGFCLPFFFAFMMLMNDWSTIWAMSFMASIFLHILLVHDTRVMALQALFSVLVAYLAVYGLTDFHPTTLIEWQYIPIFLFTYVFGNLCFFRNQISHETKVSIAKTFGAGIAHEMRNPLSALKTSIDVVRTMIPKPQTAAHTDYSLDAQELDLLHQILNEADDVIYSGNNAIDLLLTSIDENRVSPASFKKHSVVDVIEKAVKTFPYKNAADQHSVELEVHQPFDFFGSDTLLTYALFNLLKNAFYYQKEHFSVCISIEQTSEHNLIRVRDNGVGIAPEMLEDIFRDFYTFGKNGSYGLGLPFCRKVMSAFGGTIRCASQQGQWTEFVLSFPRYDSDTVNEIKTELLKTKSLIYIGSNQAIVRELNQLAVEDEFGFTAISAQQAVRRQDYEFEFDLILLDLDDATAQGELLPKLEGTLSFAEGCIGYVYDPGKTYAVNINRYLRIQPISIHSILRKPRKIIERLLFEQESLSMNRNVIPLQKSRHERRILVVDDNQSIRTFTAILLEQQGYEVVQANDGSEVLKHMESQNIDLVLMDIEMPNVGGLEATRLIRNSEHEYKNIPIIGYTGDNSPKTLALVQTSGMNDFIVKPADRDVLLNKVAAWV

On to `CCCCCCCCCC(=O)c1c(C)c[nH]c1C` [Compound 20, 1(2,4-dimethyl-1H-pyrrol-3-yl)decan-1-one], for which the “QS agonist potency (in words)” value in data set [1] was “lower agonist activity”. Besides, the EC50 (usually the concentration that produces a half-maximal response) in data set [1] (setting [5]) came to 536 ± 80 nM. In addition, in data set [1] (setting [6]), the Emax was 65 ± 16%.
Consider `CCCCCCCCCC(=O)[C@@H](O)CC` [CAI-1, (S)-3-hydroxytridecan-4-one], for which, in data set [2], the “production of virulence factor TcpA” value is on record as “repressed”. Further, in data set [3] (10 μM of CAI-1, FIG. 3, DMSO control), the “production of HapR” value was “activate production of HapR”.
For the compound `C/C=C(\N)C(=O)CCCCCCCC` [Compound 9, (Z)-3-aminododec-2-en-4-one], in data set [1], the “QS agonist potency (in words)” value is listed as “low nM activity”. For the same compound, the “level of QS activation (in words)” value in data set [1] is “full activation”. For the same compound, the EC50 came out at 2.6 nM in data set [1] (setting [7]) and 2.6 ± 0.32 nM in data set [1] (setting [5]). For the same compound, the results for the Emax in data set [1] (setting [8]) and in data set [1] (setting [6]) were 112% and 112 ± 7%, respectively.
With `C/C=C(\N)C(=O)CCCCCCCCC` [Ea-CAI-1, (Z)-3-aminotridec-2-en-4-one, reference compound], in data set [1], the “QS agonist potency (in words)” value was “low nM activity” and the “level of QS activation (in words)” value is “full activation”. The EC50 in data set [1] (setting [7]) worked out at 4.1 nM. Besides, in data set [1] (setting [8]), the Emax amounted to 100%. For the same compound, the Emax in data set [1] (setting [6]) was 100 ± 6.6%.
For `C/C=C(\N)C(=O)CCCCCCCCCCCC` [Compound 11, (Z)-3-aminohexadec-2-en-4-one], the “QS agonist potency (in words)” value in data set [1] is “much less active”. Further, the concentration giving a half-maximal response (EC50) in data set [1] (setting [7]) is over 225000 nM; in data set [1] (setting [5]), over 5000 nM. The Emax in data set [1] (setting [8]) and in data set [1] (setting [6]) was 38% in each case.
In the case of `O=C(CCCCCCc1ccccc1)c1ccc[nH]1` [Compound 29, 7-phenyl-1-(1H-pyrrol-2-yl)heptan-1-one], the EC50 in data set [1] (setting [5]) was over 5000 nM. The Emax in data set [1] (setting [6]) turned out to be 60%.
In the same order, the values of `CCCCc1ccc(/C=C/C(=O)c2cc[nH]c2)cc1` [Compound 30, 3-(4-butylphenyl)-1-(1H-pyrrol-3-yl)prop-2-en-1-one] are 88.4 ± 24.9 nM and 54 ± 29%.
Regarding `CCCCCCCCCC(=O)c1cc(C)[nH]c1C` [Compound 19, 1-(2,5-dimethyl-1H-pyrrol-3-yl)decan-1-one], the “QS agonist potency (in words)” value in data set [1] is given as “lower agonist activity”. In data set [1] (setting [5]), this compound gave an EC50 of 679 ± 92 nM. Moreover, the Emax in data set [1] (setting [6]) came out at 66 ± 14%.
`CCCCCCCCCC(=O)c1ccc[nH]1` [Compound 17, 1-(1H-pyrrol-2-yl)decan-1-one]: the “level of QS activation (in words)” value in data set [1] was “full level of QS response”. The same compound showed an EC50 in data set [1] (setting [5]) of 5170 nM. The Emax in data set [1] (setting [6]) is 103 ± 91%.
On to `C/C=C(\N)C(=O)CCCCC` [Compound 6, (Z)-3-aminonon-2-en-4-one], for which the half-maximal effective concentration (EC50) in data set [1] (setting [7]) worked out at 590 nM; in data set [1] (setting [5]) it was 594 ± 319 nM. Also, the Emax in data set [1] (setting [8]) came to 100%; in data set [1] (setting [6]), 100 ± 57%.
For the compound `O=C(CCCCCCc1ccccc1)c1cc[nH]c1` [Compound 28, 7-phenyl-1-(1H-pyrrol-3-yl)heptan-1-one], the EC50 in data set [1] (setting [5]) was 35.8 ± 6.1 nM. Moreover, the Emax in data set [1] (setting [6]) is 75 ± 10%.
As for `C/C=C(\N)C(=O)CCCCCCC` [Compound 8, (Z)-3-aminoundec-2-en-4-one], the Emax in data set [1] (setting [8]) is 109%; in data set [1] (setting [6]), 109 ± 25%.
`CCCCc1ccc(CCC(=O)c2ccc[nH]2)cc1` [Compound 27, 3-(4-butylphenyl)-1-(1H-pyrrol-2-yl)propan-1-one] registered an EC50 in data set [1] (setting [5]) of 2020 ± 1680 nM. For the same compound, the Emax in data set [1] (setting [6]) is 75 ± 45%.
In the case of `CCCCc1ccc(CCC(=O)c2cc[nH]c2)cc1` [Compound 26, 3-(4-butylphenyl)-1-(1H-pyrrol-3-yl)propan-1-one], a half-maximal response in data set [1] (setting [5]) (EC50) required 10.9 ± 4.8 nM. Besides, the Emax in data set [1] (setting [6]) was found to be 64 ± 42%.
`O=C(Cc1ccc(-c2ccccc2)cc1)c1ccc[nH]1` [Compound 35, 2-([1,1′-biphenyl]-4-yl)-1-(1H-pyrrol-2-yl)ethanone]: the “QS agonist potency (in words)” value in data set [1] is “essentially inactive”. The EC50 in data set [1] (setting [5]) was over 5000 nM. Moreover, in data set [1] (setting [6]), the Emax worked out at 26%.
In the case of `CCCCCCC/C=C/C(=O)c1ccc[nH]1` [Compound 33, (E)-1-(1H-pyrrol-2-yl)dec-2-en-1-one], the EC50 in data set [1] (setting [5]) amounted to 288 ± 92 nM. Moreover, the Emax in data set [1] (setting [6]) was 109 ± 31%.
Consider `CCCCCCCCCC(=O)c1cc[nH]c1` [Compound 18, 1-(1H-pyrrol-3-yl)decan-1-one], for which, in data set [4], the “effect on bacterial growth (in words)” value is on record as “does not inhibit bacterial growth”. Besides, the “production of virulence factor TcpA” value in data set [2] was “repressed”. For the same compound, in data set [3] (1 μM of 18, FIG. 3, DMSO control), the “production of HapR” value is reported as “increased”.
Consider `O=C(Cc1ccc(-c2ccccc2)cc1)c1cc[nH]c1` [Compound 34, 2-([1,1′-biphenyl]-4-yl)-1-(1H-pyrrol-3-yl)ethanone], for which, in data set [1], the “QS agonist potency (in words)” value is “essentially inactive”. Further, the EC50 in data set [1] (setting [5]) was over 5000 nM. The Emax in data set [1] (setting [6]) stood at 25%.
In data set [1] (setting [5]), `CCCCc1ccc(/C=C/C(=O)c2ccc[nH]2)cc1` [Compound 31, 3-(4-butylphenyl)-1-(1H-pyrrol-2-yl)prop-2-en-1-one] yielded an EC50 of 731 ± 686 nM. Besides, the Emax in data set [1] (setting [6]) is 45 ± 62%.
